We go through 5 compounds from ChEMBL document CHEMBL1201862, “PubChem BioAssay data set” (2004).

Broadly, the GI50 is the concentration giving 50% growth inhibition.

The structures appear in SMILES notation.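 Assay format: 96-well plates, 48-hour exposure. Abbreviation: GI50, concentration required for 50% inhibition of growth.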 Activity calls are given as the source filed them. Rule as the data show it: active = GI50 up to about 1.1 µM and inactive = higher.

Some test systems named below: MOLT-4; DMS-273; SW-620; SK-MEL-5; OVCAR-3; SF-268; HL-60; OVCAR-4; NCI-H226; NCI-H460; SR; EKVX; SNB-75; SK-OV-3; TK-10; HOP-92; SK-MEL-2.
Common to all, as to experiment: DTP human tumour cell line panel, 48 h

For `COC1C=CC23c4cc5c(cc4C(O)OC2CN(C)C3C1)OCO5` (centres undefined), the GI50 in the assay with MOLT-4 is 1.34 µM (inactive); with DMS-273 it was 1.4 µM (inactive); in the assay with SW-620 it was 1.59 µM (inactive); in the assay on SK-MEL-5, 0.434 µM (active); in the assay on OVCAR-3, 1.76 µM (inactive); in the assay on SF-268, 3.37 µM (inactive). The GI50 is 1.08 µM (active) in the assay on HL-60; 1.35 µM (inactive) in the assay on OVCAR-4; 1.64 µM (inactive) in the assay with NCI-H226; 2.69 µM (inactive) in the assay on NCI-H460; 1.17 µM (inactive) with SR; 3.55 µM (inactive) in the assay on EKVX.
Take `O=C1Cc2c([nH]c3ccccc23)-c2ccccc2N1` [PAULLONE]: the GI50 is 17.1 µM (inactive) in the assay on MOLT-4; 31.1 µM (inactive) in the assay on DMS-273; 28.2 µM (inactive) in the assay with SW-620; 22.8 µM (inactive) with SK-MEL-5; 23.1 µM (inactive) with OVCAR-3; 19.8 µM (inactive) in the assay with SNB-75. Also, the GI50 was 45.2 µM (inactive) in the assay with SF-268; 15.4 µM (inactive) in the assay with HL-60; 43.1 µM (inactive) in the assay with OVCAR-4; 27.8 µM (inactive) in the assay on NCI-H226; > 100 µM (inactive) with SK-OV-3; > 100 µM (inactive) in the assay with TK-10. Besides, the GI50 was 34.7 µM (inactive) in the assay on NCI-H460, 62.5 µM (inactive) with HOP-92, 43.3 µM (inactive) in the assay on SK-MEL-2 and 49.5 µM (inactive) with EKVX.
With `COc1ccc(C2=NN(C(=O)COc3ccc(Cl)cc3)C(O)(c3ccc(Cl)cc3)C2)cc1` (centres undefined), the GI50 in the assay with MOLT-4, in the assay on DMS-273, in the assay on SW-620, with OVCAR-3, in the assay with SNB-75 and in the assay with SF-268 was > 100 µM (inactive) in each case. Besides, the GI50 with HL-60, in the assay on OVCAR-4, with NCI-H226, with SK-OV-3, with TK-10 and in the assay on NCI-H460 was > 100 µM (inactive) throughout. Besides, the GI50 in the assay on HOP-92 and with SK-MEL-2 was > 100 µM (inactive) in each case.
For the compound `CCCCc1c2c(nc3c1CCc1cc4cc5c(nc4nc1-3)-c1nc3c(c(CCCC)c1CC5)CCCC3)CCCC2`, the GI50 in the assay on MOLT-4 is 35.2 µM (inactive); in the assay with DMS-273 it was 42.2 µM (inactive); with SW-620, 40 µM (inactive); in the assay on OVCAR-3, > 10 µM (inactive); in the assay on SNB-75 it was 49.9 µM (inactive); in the assay on SF-268 it was 39.3 µM (inactive). In addition, the GI50 was 42.1 µM (inactive) in the assay on HL-60; 19.4 µM (inactive) in the assay on NCI-H226; 36.5 µM (inactive) in the assay on SK-OV-3; 26.9 µM (inactive) with TK-10; 47.1 µM (inactive) in the assay on NCI-H460; 47.4 µM (inactive) in the assay with SR. In addition, the GI50 in the assay with EKVX was 12.5 µM (inactive).
For `C=C1c2[nH]c3c([N+](=O)[O-])c(OC)ccc3c2CCN1C(C)=O`, the GI50 was > 100 µM (inactive) in the assay on MOLT-4; > 100 µM (inactive) with DMS-273; > 100 µM (inactive) with SW-620; > 100 µM (inactive) in the assay on OVCAR-3; 25 µM (inactive) in the assay on SNB-75; 28.7 µM (inactive) in the assay with SF-268. For the same compound, the GI50 with HL-60, in the assay with OVCAR-4, in the assay on NCI-H226, in the assay with TK-10, in the assay on NCI-H460 and in the assay with SR was > 100 µM (inactive) each time. Further, the GI50 in the assay with SK-MEL-2 and in the assay with EKVX was > 100 µM (inactive) in each case.
